Source: US20240309360A1, “TRANS-ACTIVATORS AND METHODS AND USE THEREOF” (THE GOVERNING COUNCIL OF THE UNIVERSITY OF TORONTO, priority 2021, published 2024)

How the values were obtained:
Format in all cases: cell-based, human
[1] = test system: transcriptional activity of 83 transcriptional regulators on the EGFP reporter; assay: Tethered reporter assays in the presence of inhibitors; conditions: for effect of inhibitor on activity of the activators: 100 nM flavopiridol, 300 nM JQ1, 1 μM A-485, 2.5 μM CX-4945, 3 μM AZ191, 100 μM ABA 48 hours; for effect of inhibitor on activity of NuA4 complex interactors: 1 μM A-485 or 300 nM JQ1, e.g; call rule not given here. JAZF1 and KLF6
Procedure: To functionally investigate the connection between transcriptional activators and co-factors, a panel of 83 robust activators was arrayed. Their activation potential was tested using the reporter assay, but now in the presence of small-molecule inhibitors targeting multiple transcriptional co-regulators. Three kinase inhibitors targeting transcriptional kinases (flavopiridol for CDK9, CX-4945 for casein kinase 2, and AZ191 for DYRK1A and DYRK1B), and two compounds inhibiting transcriptional co-factors (A-485 for CBP/p300, and JQ1 for BET family bromodomain proteins) were employed.
(§1) Arrayed recruitment assays. Reporter cells stably co-expressing ABI-dCas9 and TetO gRNA were seeded either on 48-well or 96-well plates (Sarstedt) to reach 50-70% confluency on the day of transfection. 150 ng of each construct to be tested was transfected with polyethylenimine (PEI) at a ratio of 0.6 μl reagent. The day after transfection, recruitment was induced by treatment with ABA (100 μM). […] Inhibitors were dissolved in DMSO to a stock concentration of 10 mM. The final concentrations used were 100 nM for flavopiridol, 300 nM for JQ1, 1 μM for A-485, 2.5 μM for CX-4945 and 3 μM for AZ191. All inhibitors were a kind gift from the Structural Genomics Consortium (SGC). 48 hours after induction, cells were dissociated and resuspended in flow buffer using a liquid handing robot (TECAN) and analyzed by LSR Fortessa (BD). Cells were gated on high EBFP2 and RFP as a measure of gRNA and transfection control, respectively. Flow cytometry data was analyzed using FlowJo (v10).

[2] = test system: EGFP reporter (7×TetO array, basal CMV promoter) in HEK293T reporter cell line; assay: Arrayed recruitment assay, PYL1 fusions individually recruited to reporter via ABI1-dCas9 with ABA; set-up: key to independently validated as transactivating fragment: Fragments marked with * were independently validated; conditions: for independently validated as transactivating fragment: fragment fused to PYL1, arrayed format
Description: Treatment of cells with abscisic acid (ABA) induces an interaction between ABI1 and PYL1, thereby recruiting the potential transcriptional activator to a specific genomic locus defined by the guide RNA (gRNA). As a reporter, a HEK293T cell line that contains a stably integrated construct with a 7×TetO array and a basal CMV promoter driving the expression of EGFP was used (Gao et al., 2016). A monoclonal cell line that expresses ABI1-dCas9 and a single gRNA targeting TetO was generated by lentiviral infection.
as §1

[3] = test system: EGFP reporter (7×TetO array, basal CMV promoter) in HEK293T reporter cell line; assay: TAD-seq pooled activation screen of 60-aa fragments fused to PYL1; conditions: for Hit high GFP: high GFP population (top 1%); for logFC high GFP / logFC medium GFP: log 2 fold change of counts, 100 μM ABA 48 hours; for logFC high GFP: sorted high GFP cells (top 1%) vs unsorted cells; for logFC medium GFP: sorted medium GFP cells (top 2-5%) vs unsorted cells; for Hit medium GFP: medium GFP population (top 2-5%)
In short: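 60-aa tiles at 20-aa steps from 75 activator proteins, C-terminally fused to PYL1, lentivirally transduced at low MOI into reporter cells co-expressing ABI-dCas9 and promoter gRNA. Recruitment induced with 100 μM abscisic acid for 48 h (DMSO control). Top 1% and next 4% GFP cells sorted; fragments quantified by sequencing, two replicates.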

[4] = test system: EGFP reporter (TetO7) in HEK293T cells; assay: Multi-TAD effectors fused to PYL1 recruited to EGFP reporter; conditions: PYL1 fusion, 1 μM abscisic acid, 24 or 48 hours
Procedure: Multiple TADs were fused together with PYL1 and tested for transcriptional activity using the PYL1-ABI EGFP reporter system described above. The following TAD fragments were used: CITED1-8 (SEQ ID NO: 47), CITED2-12 (SEQ ID NO: 49), C3orf62-12 (SEQ ID NO: 45), BRD8-25 (SEQ ID NO: 40), ZXDC-12 (SEQ ID NO: 97), KLF7-1 (SEQ ID NO: 72), ATXN7L3-1 (SEQ ID NO: 35), FAM90A1-20 (SEQ ID NO: 60), SPDYE4-3 (SEQ ID NO: 90), YAF2-7 (SEQ ID NO: 96).
Methods: Cells were seeded on 48-well plates. Next day, after cells were between 70-90% confluent, 250 ng of each construct was transfected in each well using (Thermo Fisher Scientific, 11668019) reagent. Each construct was either directly fused TagRFP either directly fused to each component or being co-expressed from the same plasmid was used as a measure of transfection. In each experiment, the same gate for RFP+ cells were used to control for the effect of each construct's expression levels on activity. EGFP reporter cells were expanded from a clonal line to control for level of ABI-dCas9 and gRNA targeting the TetO7 sites upstream of the promoter. For the CD133 induction experiment, a 293T cell line stably expressing ABI-dCas9 and a pool of 5 gRNAs targeting the promoter were used for all activators. CD133 antibody conjugated to APC (Miltenyi Biotec, 130-113-668) was used. […]

Molecule | effect of inhibitor on activity of the activators [1] | independently validated as transactivating fragment [2] | Hit high GFP [3] | logFC high GFP [3] | logFC medium GFP [3] | Hit medium GFP [3] | also measured
COc1cc(N2CCN(C)CC2)ccc1Nc1nccc(-c2cn(C)c3cnccc23)n1 [AZ191] | slightly attenuating the activity of most activators |  |  |  |  |  | effect of inhibitor on activity of DCAF7 and NCKIPSD ([1]; 3 μM AZ191): not affected
CNC(=O)Nc1ccc2c(c1)CC[C@@]21OC(=O)N(CC(=O)N(Cc2ccc(F)cc2)[C@@H](C)C(F)(F)F)C1=O [Fragment A-485, A-485] | strongly affected the activity of some but not all transactivators |  |  |  |  |  | effect of inhibitor on activity of CBP/p300 non-interactors ([1]; 1 μM A-485): only one of the seven non-interactors was affected; effect of inhibitor on activity of KLF6 ([1]; 1 μM A-485): no effect; effect of inhibitor on activity of KLF15 ([1]; 1 μM A-485): inhibited the activity of KLF15; effect of inhibitor on activity of CBP/p300 interactors ([1]; 1 μM A-485, interactors by AP-MS and BioID): four of the six CBP/p300 interactors was significantly decreased; effect of inhibitor on activity of NuA4 complex interactors [1]: not significantly affected; sensitivity of C3orf62-Cterm and SRF-C3orf62 reporter activation to inhibitor ([1]; CBP/p300 inhibition): highly sensitive
Cc1sc2c(c1C)C(c1ccc(Cl)cc1)=N[C@@H](CC(=O)OC(C)(C)C)c1nnc(C)n1-2 [JQ1] | increase in reporter gene activity |  |  |  |  |  | effect of inhibitor on activity of NuA4 complex interactors [1]: not affected
CN1CC[C@H](c2c(O)cc(O)c3c(=O)cc(-c4ccccc4Cl)oc23)[C@H](O)C1 [flavopiridol] | nearly complete loss of activity of all activators |  |  |  |  |  | 
SPDYE4-3: 60-aa TAD-seq fragment of SPDYE4; SPDYE4 activation domain (DPSPQPQSLGLKRKSEWSDESEEELEEELELERAPEPEDTWVVETLCGLKMKLKRKRASS; listed as Homo sapiens) |  | 3* | hit | 4.82 | 2.409 | hit | transcriptional activation of EGFP reporter by TAD fusions [4]: weak activity
VP64: synthetic transactivator, four tandem copies of the viral VP16 transactivation motif (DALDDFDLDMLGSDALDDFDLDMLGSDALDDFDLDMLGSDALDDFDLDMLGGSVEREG; listed as Homo sapiens) [reference compound] |  |  | hit | 5.476 | 2.374 |  | activation of the EGFP reporter when individually tested ([2]; PYL1 fusion, ABA 48 hours, flow cytometry): robust induction of GFP; enrichment compared to the unsorted fragment library ([3]; high GFP and medium GFP populations): enriched in the high GFP population but depleted in the medium GFP population
YAF2-7: 60-aa TAD-seq fragment of YAF2 (SHKKTRPRLKNVDRSSAQHLEVTVGDLTVIITDFKEKTKSPPASSAASADQHSQSGSSSD; listed as Homo sapiens) |  | YAF2-7* | hit | 4.987 | 1.828 | hit | 
ZXDC-12: 60-aa TAD-seq fragment of ZXDC (SPAEQHGAQDTELSAGTGNFYLESGGSARTDYRAIQLAKEKKQRGAGSNAGASQSTQRKI; listed as Homo sapiens) |  | ZXDC-12* | hit | 3.966 | 2.496 | hit | 
